Source: ChEMBL document CHEMBL1833797, “Microwave assisted synthesis and antimicrobial evaluation of new fused pyran derivatives bearing 2-morpholinoquinoline nucleus” (2011)
In brackets after ≈: the same amount, converted by molar mass.

What was measured:
Candida albicans = test: Antifungal activity against Candida albicans MTCC 227 for 48 hrs by microdilution method; format: functional; conditions: MTCC 227, 48 h
Salmonella typhi = test: Antimicrobial activity against Salmonella typhi MTCC 98 for 24 hrs by microdilution method; format: functional, Salmonella enterica subsp. enterica serovar Typhi; conditions: Salmonella enterica, MTCC 98, 24 h
Vibrio cholerae = test: Antimicrobial activity against Vibrio cholerae MTCC 3906 for 24 hrs by microdilution method; format: functional; conditions: MTCC 3906, 24 h
Bacillus subtilis = test: Antimicrobial activity against Bacillus subtilis MTCC 441 for 24 hrs by microdilution method; format: functional; conditions: MTCC 441, 24 h
Streptococcus pneumoniae = test: Antimicrobial activity against Streptococcus pneumoniae MTCC 1936 for 24 hrs by microdilution method; format: functional; conditions: MTCC 1936, 24 h
Clostridium tetani = test: Antimicrobial activity against Clostridium tetani MTCC 449 for 24 hrs by microdilution method; format: functional; conditions: MTCC 449, 24 h
Escherichia coli = test: Antimicrobial activity against Escherichia coli MTCC 443 for 24 hrs by microdilution method; format: functional; conditions: MTCC 443, 24 h
Aspergillus fumigatus = test: Antifungal activity against Aspergillus fumigatus MTCC 3008 for 48 hrs by microdilution method; format: functional; conditions: MTCC 3008, 48 h

| SMILES | MIC (Candida albicans) [mg/L] | MIC (Salmonella typhi) [mg/L] | MIC (Vibrio cholerae) [mg/L] | MIC (Bacillus subtilis) [mg/L] | MIC (Streptococcus pneumoniae) [mg/L] | MIC (Clostridium tetani) [mg/L] | MIC (Escherichia coli) [mg/L] | MIC (Aspergillus fumigatus) [mg/L] |
| --- | --- | --- | --- | --- | --- | --- | --- | --- |
| N#CC1=C(N)OC2=C(C(=O)c3ccccc3C2=O)C1c1cc2ccccc2nc1N1CCOCC1 (stereo not given) | 100 (≈ 215 µM) | 12.5 (≈ 26.9 µM) | 500 (≈ 1080 µM) | 500 (≈ 1080 µM) | 500 (≈ 1080 µM) | 500 (≈ 1080 µM) | 200 (≈ 431 µM) | > 1000 |
| COc1ccc2nc(N3CCOCC3)c(C3C(C#N)=C(N)Oc4c3ccc3ccccc43)cc2c1 (stereo not given) | 100 (≈ 215 µM) | 100 (≈ 215 µM) | 200 (≈ 431 µM) | 250 (≈ 538 µM) | 250 (≈ 538 µM) | 250 (≈ 538 µM) | 200 (≈ 431 µM) | 1000 (≈ 2150 µM) |
| Cc1ccc2nc(N3CCOCC3)c(C3C(C#N)=C(N)Oc4c3c(=O)oc3ccccc43)cc2c1 (stereo not given) | 500 (≈ 1070 µM) | 250 (≈ 536 µM) | 12.5 (≈ 26.8 µM) | 500 (≈ 1070 µM) | 500 (≈ 1070 µM) | 250 (≈ 536 µM) | 250 (≈ 536 µM) | 500 (≈ 1070 µM) |
| Cc1ccc2nc(N3CCOCC3)c(C3C(C#N)=C(N)OC4=C3C(=O)c3ccccc3C4=O)cc2c1 (stereo not given) | > 1000 | 100 (≈ 209 µM) | 250 (≈ 522 µM) | 200 (≈ 418 µM) | 100 (≈ 209 µM) | 250 (≈ 522 µM) | 250 (≈ 522 µM) | > 1000 |
| N#CC1=C(N)Oc2c(c(=O)oc3ccccc23)C1c1cc2ccccc2nc1N1CCOCC1 (stereo not given) | 500 (≈ 1110 µM) | 100 (≈ 221 µM) | 250 (≈ 553 µM) | 250 (≈ 553 µM) | 250 (≈ 553 µM) | 200 (≈ 442 µM) | 200 (≈ 442 µM) | 500 (≈ 1110 µM) |
| COC1=CC(=O)C[C@@H](C)[C@]12Oc1c(Cl)c(OC)cc(OC)c1C2=O [GRISEOFULVIN] | 500 (≈ 1420 µM) | – | – | – | – | – | – | 100 (≈ 283 µM) |
| Cc1ccc2nc(N3CCOCC3)c(C3C(C#N)=C(N)OC4=C3C(=O)CCC4)cc2c1 (stereo not given) | 1000 (≈ 2400 µM) | 200 (≈ 480 µM) | 200 (≈ 480 µM) | 200 (≈ 480 µM) | 100 (≈ 240 µM) | 200 (≈ 480 µM) | 200 (≈ 480 µM) | > 1000 |
| N#CC1=C(N)Oc2c(ccc3ccccc23)C1c1cc2ccccc2nc1N1CCOCC1 (stereo not given) | 500 (≈ 1150 µM) | 500 (≈ 1150 µM) | 500 (≈ 1150 µM) | 250 (≈ 575 µM) | 500 (≈ 1150 µM) | 250 (≈ 575 µM) | 500 (≈ 1150 µM) | > 1000 |
| COc1ccc2nc(N3CCOCC3)c(C3C(C#N)=C(N)Oc4[nH]nc(C)c43)cc2c1 (stereo not given) | 250 (≈ 597 µM) | 250 (≈ 597 µM) | 250 (≈ 597 µM) | 200 (≈ 478 µM) | 200 (≈ 478 µM) | 250 (≈ 597 µM) | 250 (≈ 597 µM) | 500 (≈ 1190 µM) |
| CCn1cc(C(=O)O)c(=O)c2cc(F)c(N3CCNCC3)cc21 [NORFLOXACIN] | – | 10 (≈ 31.3 µM) | 10 (≈ 31.3 µM) | 100 (≈ 313 µM) | 10 (≈ 31.3 µM) | 50 (≈ 157 µM) | 10 (≈ 31.3 µM) | – |
| O=C(N[C@H](CO)[C@H](O)c1ccc([N+](=O)[O-])cc1)C(Cl)Cl [CHLORAMPHENICOL] | – | 50 (≈ 155 µM) | 50 (≈ 155 µM) | 50 (≈ 155 µM) | 50 (≈ 155 µM) | 50 (≈ 155 µM) | 50 (≈ 155 µM) | – |
| Cc1ccc2nc(N3CCOCC3)c(C3C(C#N)=C(N)Oc4cc(C)oc(=O)c43)cc2c1 (stereo not given) | 1000 (≈ 2320 µM) | 200 (≈ 465 µM) | 200 (≈ 465 µM) | 500 (≈ 1160 µM) | 500 (≈ 1160 µM) | 200 (≈ 465 µM) | 100 (≈ 232 µM) | 200 (≈ 465 µM) |
| Cc1cc2c(c(=O)o1)C(c1cc3ccccc3nc1N1CCOCC1)C(C#N)=C(N)O2 (stereo not given) | 1000 (≈ 2400 µM) | 100 (≈ 240 µM) | 100 (≈ 240 µM) | 200 (≈ 480 µM) | 200 (≈ 480 µM) | 100 (≈ 240 µM) | 62.5 (≈ 150 µM) | 200 (≈ 480 µM) |
| COc1ccc2nc(N3CCOCC3)c(C3C(C#N)=C(N)OC4=C3C(=O)CCC4)cc2c1 (stereo not given) | 500 (≈ 1160 µM) | 200 (≈ 462 µM) | 250 (≈ 578 µM) | 250 (≈ 578 µM) | 250 (≈ 578 µM) | 500 (≈ 1160 µM) | 200 (≈ 462 µM) | 1000 (≈ 2310 µM) |
| N#CC1=C(N)Oc2cc(O)ccc2C1c1cc2ccccc2nc1N1CCOCC1 (stereo not given) | 1000 (≈ 2500 µM) | 200 (≈ 499 µM) | 250 (≈ 624 µM) | 250 (≈ 624 µM) | 250 (≈ 624 µM) | 250 (≈ 624 µM) | 100 (≈ 250 µM) | > 1000 |
